Results reported in the supplement of paper PMC11208160.

Experiment: recombinant UMI read abundance after kanamycin selection (control-corrected) (log10(CPM+1)); higher = more efficient recombination; extreme values may be limits of the assay; sequences stand for … in AGTGCAGAGAAAATCGGCCAGTTTTCTCTGCCTGCAGTCCGCATGCCGTGGGACCCCTTGGGTTCTAACCTGTTGCCTAGATTTATGCAGCGGACTGCCTTTCTCCCAAAGTGATAAACCGG…AGGTTGGTTTCACT; site = the 11-nt donor
Outline: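 Sequenced counts of recombinant UMIs were turned into CPM, averaged across replicates and scaled with control-derived factors. The reported figure is log10(CPM+1). Those UMIs, each 12 nt long, tagged donor and donor-binding-loop pairs on a plasmid with a promoterless kanamycin gene, screened as a pool in Escherichia coli with IPTG (0.07 mM) plus kanamycin or without selection.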
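Further: IS621 bridge recombinase in Escherichia coli cells against a fixed T5 target plasmid.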

Question: For “GCGCTCACATGGACCGGTTTTCCCGGTAATCCGTATTTGAT (site GAGCTCACTAT)”, which “recombinant UMI read abundance (log10)” value is on record?
Answer: 0.12

Question: With “GCGCTCACATGGACCGGTTTTCCCGGTAATCCGTATTTGAT (site GCGCTCACTAT)” as the sequence, how does the “recombinant UMI read abundance (log10)” value read?
Answer: 2.21

Question: For “GCGCTCACATGGACCGGTTTTCCCGGTAATCCGTATTTGAT (site GGGCTCACTAT)”, which “recombinant UMI read abundance (log10)” value is on record?
Answer: 0.00525

Question: With “GCGCTCACATGGACCGGTTTTCCCGGTAATCCGTATTTGAT (site GTGCTCACTAT)” as the sequence, how does the “recombinant UMI read abundance (log10)” value read?
Answer: 0.28

Question: For “GCGGAAGCATGGACCGGTTTTCCCGGTAATCCGTATTTGGT (site GCGGAAGCTAC)”, which “recombinant UMI read abundance (log10)” value is on record?
Answer: 1.72

Question: Which “recombinant UMI read abundance (log10)” value does the source give for “GCGGATGCATGGACCGGTTTTCCCGGTAATCCGTATTTGAA (site GCGGATGCTTT)” here?
Answer: 2.38

Question: With “GCGGCACCATGGACCGGTTTTCCCGGTAATCCGTATTTGCA (site GAGGCACCTTG)” as the sequence, how does the “recombinant UMI read abundance (log10)” value read?
Answer: 0.00511

Question: For “GCGGCACCATGGACCGGTTTTCCCGGTAATCCGTATTTGCA (site GCGGCACCTTG)”, which “recombinant UMI read abundance (log10)” value is on record?
Answer: 0

Question: For “GCGGCACCATGGACCGGTTTTCCCGGTAATCCGTATTTGCA (site GGGGCACCTTG)”, which “recombinant UMI read abundance (log10)” value is on record?
Answer: 0.008

Question: For “GCGGCACCATGGACCGGTTTTCCCGGTAATCCGTATTTGCA (site GTGGCACCTTG)”, which “recombinant UMI read abundance (log10)” value is on record?
Answer: 0

Question: For “GCGGCTACATGGACCGGTTTTCCCGGTAATCCGTATTTGTC (site GCGGCTACTGA)”, which “recombinant UMI read abundance (log10)” value is on record?
Answer: 2.67

Question: Which “recombinant UMI read abundance (log10)” value does the source give for “GCGGCTTCATGGACCGGTTTTCCCGGTAATCCGTATTTGTC (site GCGGCTTCTGA)” here?
Answer: 1.81

Question: For “GCGGGCACATGGACCGGTTTTCCCGGTAATCCGTATTTGTG (site GCGGGCACTCA)”, which “recombinant UMI read abundance (log10)” value is on record?
Answer: 0.836

Question: For “GCGGTGCCATGGACCGGTTTTCCCGGTAATCCGTATTTGGC (site GCGGTGCCTGC)”, which “recombinant UMI read abundance (log10)” value is on record?
Answer: 0

Question: With “GCGGTGTCATGGACCGGTTTTCCCGGTAATCCGTATTTGAA (site GCGGTGTCTTT)” as the sequence, how does the “recombinant UMI read abundance (log10)” value read?
Answer: 2.41

Question: With “GCGTATTCATGGACCGGTTTTCCCGGTAATCCGTATTTGCC (site GCGTATTCTGG)” as the sequence, how does the “recombinant UMI read abundance (log10)” value read?
Answer: 2.14

Question: For “GCGTATTCATGGACCGGTTTTCCCGGTAATCCGTATTTGTG (site GCGTATTCTCA)”, which “recombinant UMI read abundance (log10)” value is on record?
Answer: 2.49

Question: Which “recombinant UMI read abundance (log10)” value does the source give for “GCGTCGGCATGGACCGGTTTTCCCGGTAATCCGTATTTGGA (site GCGTCGGCTTC)” here?
Answer: 0.519

Question: Which “recombinant UMI read abundance (log10)” value does the source give for “GCGTGCCCATGGACCGGTTTTCCCGGTAATCCGTATTTGAT (site GCATGCCCTAT)” here?
Answer: 0.417

Question: Which “recombinant UMI read abundance (log10)” value does the source give for “GCGTGCCCATGGACCGGTTTTCCCGGTAATCCGTATTTGAT (site GCCTGCCCTAT)” here?
Answer: 0.0179

Question: Which “recombinant UMI read abundance (log10)” value does the source give for “GCGTGCCCATGGACCGGTTTTCCCGGTAATCCGTATTTGAT (site GCGTGCCCTAT)” here?
Answer: 0.221

Question: With “GCGTGCCCATGGACCGGTTTTCCCGGTAATCCGTATTTGAT (site GCTTGCCCTAT)” as the sequence, how does the “recombinant UMI read abundance (log10)” value read?
Answer: 0.0133

Question: For “GCGTTCTCATGGACCGGTTTTCCCGGTAATCCGTATTTGAA (site GCGTTCTCTTT)”, which “recombinant UMI read abundance (log10)” value is on record?
Answer: 2.47

Question: Which “recombinant UMI read abundance (log10)” value does the source give for “GCTACCTCATGGACCGGTTTTCCCGGTAATCCGTATTTGGC (site GCTACCTCTGC)” here?
Answer: 2.47

Question: With “GCTACTGCATGGACCGGTTTTCCCGGTAATCCGTATTTGCA (site GCTACTGCTAG)” as the sequence, how does the “recombinant UMI read abundance (log10)” value read?
Answer: 0

Question: For “GCTACTGCATGGACCGGTTTTCCCGGTAATCCGTATTTGCA (site GCTACTGCTCG)”, which “recombinant UMI read abundance (log10)” value is on record?
Answer: 0.00835

Question: For “GCTACTGCATGGACCGGTTTTCCCGGTAATCCGTATTTGCA (site GCTACTGCTGG)”, which “recombinant UMI read abundance (log10)” value is on record?
Answer: 0

Question: For “GCTACTGCATGGACCGGTTTTCCCGGTAATCCGTATTTGCA (site GCTACTGCTTG)”, which “recombinant UMI read abundance (log10)” value is on record?
Answer: 2.78

Question: Which “recombinant UMI read abundance (log10)” value does the source give for “GCTACTGCATGGACCGGTTTTCCCGGTAATCCGTATTTGCG (site GCTACTGCTAG)” here?
Answer: 0.345

Question: With “GCTACTGCATGGACCGGTTTTCCCGGTAATCCGTATTTGCG (site GCTACTGCTCG)” as the sequence, how does the “recombinant UMI read abundance (log10)” value read?
Answer: 1.27

Question: With “GCTACTGCATGGACCGGTTTTCCCGGTAATCCGTATTTGCG (site GCTACTGCTGG)” as the sequence, how does the “recombinant UMI read abundance (log10)” value read?
Answer: 0

Question: For “GCTACTGCATGGACCGGTTTTCCCGGTAATCCGTATTTGCG (site GCTACTGCTTG)”, which “recombinant UMI read abundance (log10)” value is on record?
Answer: 1.35

Question: Which “recombinant UMI read abundance (log10)” value does the source give for “GCTACTGCATGGACCGGTTTTCCCGGTAATCCGTATTTGTC (site GCTACTGCTGA)” here?
Answer: 1.83

Question: With “GCTACTGCATGGACCGGTTTTCCCGGTAATCCGTATTTGTC (site GCTACTGCTGC)” as the sequence, how does the “recombinant UMI read abundance (log10)” value read?
Answer: 0

Question: With “GCTACTGCATGGACCGGTTTTCCCGGTAATCCGTATTTGTC (site GCTACTGCTGG)” as the sequence, how does the “recombinant UMI read abundance (log10)” value read?
Answer: 0.571

Question: For “GCTACTGCATGGACCGGTTTTCCCGGTAATCCGTATTTGTC (site GCTACTGCTGT)”, which “recombinant UMI read abundance (log10)” value is on record?
Answer: 0.512

Question: For “GCTAGAACATGGACCGGTTTTCCCGGTAATCCGTATTTGAG (site ACTAGAACTCT)”, which “recombinant UMI read abundance (log10)” value is on record?
Answer: 0.959

Question: Which “recombinant UMI read abundance (log10)” value does the source give for “GCTAGAACATGGACCGGTTTTCCCGGTAATCCGTATTTGAG (site CCTAGAACTCT)” here?
Answer: 0.439

Question: Which “recombinant UMI read abundance (log10)” value does the source give for “GCTAGAACATGGACCGGTTTTCCCGGTAATCCGTATTTGAG (site GCTAGAACTCT)” here?
Answer: 1.83

Question: With “GCTAGAACATGGACCGGTTTTCCCGGTAATCCGTATTTGAG (site TCTAGAACTCT)” as the sequence, how does the “recombinant UMI read abundance (log10)” value read?
Answer: 0.815

Question: Which “recombinant UMI read abundance (log10)” value does the source give for “GCTAGGCCATGGACCGGTTTTCCCGGTAATCCGTATTTGAG (site GCTAGGCCTCT)” here?
Answer: 0.0384

Question: For “GCTATACCATGGACCGGTTTTCCCGGTAATCCGTATTTGTA (site GCTATACCTTA)”, which “recombinant UMI read abundance (log10)” value is on record?
Answer: 0.0042

Question: With “GCTATCTCATGGACCGGTTTTCCCGGTAATCCGTATTTGAA (site GCTATCTCTTT)” as the sequence, how does the “recombinant UMI read abundance (log10)” value read?
Answer: 1.86

Question: Which “recombinant UMI read abundance (log10)” value does the source give for “GCTCCTGCATGGACCGGTTTTCCCGGTAATCCGTATTTGCC (site GCTACTGCTGG)” here?
Answer: 0.902

Question: Which “recombinant UMI read abundance (log10)” value does the source give for “GCTCCTGCATGGACCGGTTTTCCCGGTAATCCGTATTTGCC (site GCTCCTGCTGG)” here?
Answer: 0.921

Question: With “GCTCCTGCATGGACCGGTTTTCCCGGTAATCCGTATTTGCC (site GCTGCTGCTGG)” as the sequence, how does the “recombinant UMI read abundance (log10)” value read?
Answer: 0

Question: For “GCTCCTGCATGGACCGGTTTTCCCGGTAATCCGTATTTGCC (site GCTTCTGCTGG)”, which “recombinant UMI read abundance (log10)” value is on record?
Answer: 0

Question: With “GCTGGCCCATGGACCGGTTTTCCCGGTAATCCGTATTTGAT (site GCTAGCCCTAT)” as the sequence, how does the “recombinant UMI read abundance (log10)” value read?
Answer: 0.0226

Question: Which “recombinant UMI read abundance (log10)” value does the source give for “GCTGGCCCATGGACCGGTTTTCCCGGTAATCCGTATTTGAT (site GCTCGCCCTAT)” here?
Answer: 0.00439

Question: With “GCTGGCCCATGGACCGGTTTTCCCGGTAATCCGTATTTGAT (site GCTGGCCCTAT)” as the sequence, how does the “recombinant UMI read abundance (log10)” value read?
Answer: 0.00519

Question: For “GCTGGCCCATGGACCGGTTTTCCCGGTAATCCGTATTTGAT (site GCTTGCCCTAT)”, which “recombinant UMI read abundance (log10)” value is on record?
Answer: 0

Question: For “GCTGGTCCATGGACCGGTTTTCCCGGTAATCCGTATTTGTA (site GCTGGTCCTTA)”, which “recombinant UMI read abundance (log10)” value is on record?
Answer: 0.297

Question: For “GCTGTCCCATGGACCGGTTTTCCCGGTAATCCGTATTTGGC (site GCTGTCCCTGC)”, which “recombinant UMI read abundance (log10)” value is on record?
Answer: 0

Question: For “GCTGTTCCATGGACCGGTTTTCCCGGTAATCCGTATTTGGT (site GATGTTCCTAC)”, which “recombinant UMI read abundance (log10)” value is on record?
Answer: 0.0117

Question: With “GCTGTTCCATGGACCGGTTTTCCCGGTAATCCGTATTTGGT (site GCTGTTCCTAC)” as the sequence, how does the “recombinant UMI read abundance (log10)” value read?
Answer: 0

Question: Which “recombinant UMI read abundance (log10)” value does the source give for “GCTGTTCCATGGACCGGTTTTCCCGGTAATCCGTATTTGGT (site GGTGTTCCTAC)” here?
Answer: 0.0107

Question: With “GCTGTTCCATGGACCGGTTTTCCCGGTAATCCGTATTTGGT (site GTTGTTCCTAC)” as the sequence, how does the “recombinant UMI read abundance (log10)” value read?
Answer: 0
